Assay results as given in paper PMC6038183 (BMC Genomics, 2018).

Target: OppA (main ectoATPase of M. hominis PG21) (Metamycoplasma hominis, UniProt D1J7T8)
Details: intact cells of parental strain PG21 (whole-cell ectoATPase activity, other ATPases not excluded); pH 7.5, 37 °C, 4 h, 0-3 mM ATP

Sequence of OppA (main ectoATPase of M. hominis PG21) (D1J7T8 entry or part of it): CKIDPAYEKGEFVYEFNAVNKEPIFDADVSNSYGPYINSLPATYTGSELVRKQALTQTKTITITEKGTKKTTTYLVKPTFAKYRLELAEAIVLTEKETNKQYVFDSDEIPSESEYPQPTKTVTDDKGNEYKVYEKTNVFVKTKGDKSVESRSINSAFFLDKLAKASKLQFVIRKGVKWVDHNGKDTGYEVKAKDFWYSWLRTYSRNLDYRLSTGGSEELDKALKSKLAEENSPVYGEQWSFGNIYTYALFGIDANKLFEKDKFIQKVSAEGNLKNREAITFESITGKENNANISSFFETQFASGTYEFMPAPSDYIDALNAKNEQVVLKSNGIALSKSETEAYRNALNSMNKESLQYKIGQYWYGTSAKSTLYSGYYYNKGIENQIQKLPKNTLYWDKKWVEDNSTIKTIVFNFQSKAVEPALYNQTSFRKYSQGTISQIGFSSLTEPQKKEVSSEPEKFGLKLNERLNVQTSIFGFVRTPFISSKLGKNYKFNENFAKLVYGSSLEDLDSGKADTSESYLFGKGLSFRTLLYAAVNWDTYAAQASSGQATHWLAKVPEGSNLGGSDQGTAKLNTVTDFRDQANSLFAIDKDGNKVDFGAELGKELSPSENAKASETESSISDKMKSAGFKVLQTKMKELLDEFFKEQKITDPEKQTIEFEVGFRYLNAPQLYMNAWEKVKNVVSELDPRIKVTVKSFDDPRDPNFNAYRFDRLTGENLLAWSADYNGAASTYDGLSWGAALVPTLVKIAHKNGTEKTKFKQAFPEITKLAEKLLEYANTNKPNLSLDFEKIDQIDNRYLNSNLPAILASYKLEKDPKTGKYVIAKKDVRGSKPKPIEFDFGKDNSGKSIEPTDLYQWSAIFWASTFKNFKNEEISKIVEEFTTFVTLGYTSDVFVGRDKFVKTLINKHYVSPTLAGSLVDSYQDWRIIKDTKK

Structure (SMILES): Nc1ncnc2c1ncn2[C@@H]1O[C@H](COP(=O)(O)OP(=O)(O)OP(=O)(O)O)[C@@H](O)[C@H]1O [ATP]
- Km: the parental PG21 strain were tested for ATPase activity
